Earlier results, collected in US20090005297A1 (priority 2004, published 2009).

Conditions: nonspecific PEGylation at amine groups with one or two 5 kDa PEG

Substance: variant aprotinin (T11 D, K15R, R17L, I18H, I19L, V34Y, R39L, K46E): variant aprotinin nonspecifically PEGylated at amine groups with one or two 5 kDa PEG (Stassen 1995)
- in vivo effectiveness: not improved
